The text below walks through data of PMC11249953, “c-KIT inhibitors reduce pathology and improve behavior in the Tg(SwDI) model of Alzheimer’s disease” (Life Science Alliance, 2024).

For orientation: inhibition means the drop in the measured response relative to a control, in per cent. A word on the Tmax: it is the time at which the peak concentration occurs. For orientation: AUC means concentration integrated over time. As a reminder, the Cmax is the peak of the concentration-time curve.

For data set [1], the target named is T1, MTOR (Homo sapiens, UniProt P42345).
T1 construct: DNA label for qPCR read-out (T7 phage fusion or DNA tag); purchased Eurofins DiscoverX Corporation; host or cells: T7 phage in E. coli (BL21-derived) or HEK-293
The experiment in a line: KINOMEscan competition binding, MTOR. Conditions: 10 µM compound; for remaining binding at 10 µM: lower = stronger binding, read-out: MTOR %Ctrl @ 10000nM (POC). As to the method:
(§1) The KINOMEscan screening platform (Eurofins DiscoverX Corporation) was performed using active site-directed competition binding assay to quantitatively measure interactions between BK40143 and BK40197 and more than 450 human kinases and disease relevant mutant variants. […] Screening “hits” are identified by measuring the amount of kinase captured in test (BK40143 and BK40197) versus control samples by using a quantitative and ultra-sensitive qRT-PCR method that detects the associated DNA label. BK40143 and BK40197 were screened at 10 µM concentration, and results for primary screen binding interactions were reported as “% Ctrl” (POC), where lower numbers indicate stronger hits and calculated as follows: [test compound signal−positive control signal/negative control signal−positive control signal]×100
(§2) negative control = DMSO (100% Ctrl)
(§3) positive control = control compound (0% Ctrl)
(§4) Based on screening data from of profiled compounds, a proportional relationship between primary screening results and corresponding compound/target affinities can be described as binding constants (Kd values) for the indicated ranges of POC values with tighter binding (higher affinity) interactions associated with lower POC values and weaker binding (lower affinity) associated with higher POC values. Briefly, kinase-tagged T7 phage strains were grown in parallel in 24-well blocks in an E. coli host derived from the BL21 strain. E. coli were grown to log-phase and infected with T7 phage from a frozen stock (multiplicity of infection = 0.4) and incubated with shaking at 32°C until lysis (90–150 min). The lysates were centrifuged (6,000g) and filtered (0.2 μm) to remove cell debris. The remaining kinases were produced in HEK-293 cells and subsequently tagged with DNA for qRT-PCR detection. Streptavidin-coated magnetic beads were treated with biotinylated small molecule ligands for 30 min at RT to generate affinity resins for kinase assays. The liganded beads were blocked with excess biotin and washed with blocking buffer (1% BSA, 0.05% Tween 20, 1 mM DTT; SeaBlock [Pierce]) to remove unbound ligand and to reduce non-specific phage binding. Binding reactions were assembled by combining kinases, liganded affinity beads, and test compounds in 1x binding buffer (20% 0.17x PBS, 0.05% Tween 20, 6 mM DTT; SeaBlock). Test compounds were prepared as 100x stocks in 100% DMSO and directly diluted into the assay. All reactions were performed in polypropylene 384-well plates in a final volume of 0.02 ml. The assay plates were incubated at RT with shaking for 1 h and the affinity beads were washed with wash buffer (1x PBS, 0.05% Tween 20). […] The kinase concentration in the eluates was measured by qRT-PCR.

The conditions of data set [2]: ref Fowler et al, 2020; cited from earlier work.
Data set [3] concerns mice. The experiment in a line: Rotarod (source data sheets only, mouse line not given). Type of data set: in vivo. The following applies: for Rotarod trial 1 / Rotarod trial 2: Day 1; for Rotarod trial 1 / Rotarod trial 2 / Rotarod trial 3 / Rotarod trial 4 / Rotarod trial 5 / Rotarod trial 6 / Rotarod D1 AVG / Rotarod D2 AVG / Rotarod D3 AVG / Rotarod Total AVG: individual mice, listed as 143; for Rotarod trial 3 / Rotarod trial 4: Day 2; for Rotarod trial 5 / Rotarod trial 6: Day 3. On the technique in general: Falling from the rotarod earlier than controls is read as motor impairment.

Data set [4] deals with T2, FYN (Homo sapiens, UniProt P06241).
T2 construct: DNA label for qPCR read-out (T7 phage fusion or DNA tag); purchased Eurofins DiscoverX Corporation; host or cells: T7 phage in E. coli (BL21-derived) or HEK-293
The data set is described as follows: KINOMEscan competition binding, FYN. Conditions: 10 µM compound; for remaining binding at 10 µM: lower = stronger binding, read-out: FYN %Ctrl @ 10000nM. As to the method:
as §1, §2, §3, §4

Data set [5] concerns A53T mice. The data set is described as follows: Novel object recognition, A53T mice. Type of data set: in vivo, mouse. Conditions: 5 mg/kg. On the procedure: Novel object recognition was carried out using a 50 × 50 cm arena with clear walls covered by brown construction paper. Mice were habituated to the room for 30 min each day, before being allowed to freely explore the arena for 5 min two times, for 3 d. On the 4th d, two identical objects were placed in the arena in opposite adjacent corners, 10 cm from the corner of the arena. Mice were placed along the wall opposite from the objects and allowed to freely explore for 10 min. Approach behavior (extending nose toward the object) toward both objects was recorded manually using handheld stop watches and compared with ensure there was no preference for either neutral object. For the probe trial, one object was removed and replaced with a novel object, and mice were again allowed to freely explore for 10 min, with approach time towards the novel and familiar objects recorded. Trials in which the mice explored for less than 1 s were excluded. Discrimination index was calculated by dividing time spent exploring the novel object by total time exploring both objects and was compared for treated versus control animals.

The nature of data set [6]: Pharmacokinetic analysis of BK40197 (brain and serum, LC-MS/MS). Type of data set: in vivo, C57BL/6 mice. Conditions: for Kp / Tmax / AUC / Cmax: both sexes, C57BL/6, mouse; for Kp: brain/serum, intraperitoneal, read-out: brain to serum ratio. As to the method: The PK profile of BK40197 was investigated after single IP doses of 20 and 45 mg/kg BK40197 to male and female 5–6 mo old C57BL/6 mice compared with DMSO. A solution at 5 ng/ml isotope labelled reference compounds d8-BK40197 was prepared. The solvent used for internal standard (ISTD) dilution is (200 ml/50 ml) acetonitrile/ethyl acetate (ACN/EtOAc). Brain tissue was homogenized in ice water bath and was prepared using weight accurately on analytical balance with 4 decimals. A volume water (MilliQ) was added by adjustable 100–1,000 μl to a concentration at 100 mg brain tissue/ml water. Brain homogenate (25 μl) and plasma sample (25 μl) that was thawed to RT and gently mixed were pipetted to eppendorf tube with lid and 75 μl ISTD added, mixed on vortex and centrifuged for 5 min at […]. A volume of 25 μl milli-Q water and 75 μl brain or plasma samples were added into a 200 μl PE vial and mixed on vortex and 10 μl and injected on LC-MS/MS. All animal work was approved by GUACUC.

Data set [7] can be described thus: Solubility in DMSO. Type of data set: physicochemical.

Values joined by “and” are separate entries in the source; they are usually repeats but may differ in a detail not shown here. Identical values can stand only once. Like-named read-outs stand apart in the source and are kept apart here.

T2 sequence (P06241 whole entry, the tested form may be a part): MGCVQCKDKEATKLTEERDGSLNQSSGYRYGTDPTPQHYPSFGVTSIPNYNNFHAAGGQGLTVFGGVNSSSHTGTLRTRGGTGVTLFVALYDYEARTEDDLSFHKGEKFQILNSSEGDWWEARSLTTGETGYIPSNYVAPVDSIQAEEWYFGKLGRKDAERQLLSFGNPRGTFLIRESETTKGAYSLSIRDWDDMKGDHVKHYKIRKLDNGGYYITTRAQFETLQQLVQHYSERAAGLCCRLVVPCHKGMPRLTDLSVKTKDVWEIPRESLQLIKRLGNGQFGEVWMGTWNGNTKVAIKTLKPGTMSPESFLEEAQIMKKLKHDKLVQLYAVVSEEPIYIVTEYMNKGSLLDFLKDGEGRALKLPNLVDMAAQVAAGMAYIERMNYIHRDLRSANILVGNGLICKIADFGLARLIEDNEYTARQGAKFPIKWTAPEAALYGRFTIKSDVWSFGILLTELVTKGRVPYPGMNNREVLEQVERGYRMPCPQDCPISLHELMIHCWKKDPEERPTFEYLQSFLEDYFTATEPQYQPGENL

For `Cc1cccc(-c2cc3nccc(Nc4ccccc4)c3s2)c1` [BK40143], in data set [1], at 10 µM the inhibition was 0% and the remaining binding at 10 µM is 100%. Further, the brain penetrance entry in data set [2] is recorded as “brain penetrant”. Also, in data set [3] (2.5mg/kg), the “Rotarod D1 AVG, group mean” value was 20.1429 s; the “Rotarod D2 AVG, group mean” value was 81.5714 s; the “Rotarod D3 AVG, group mean” value came to 111.786 s; the “Rotarod Total AVG, group mean” value was 71.1667 s. Moreover, in data set [3] (2.5mg/kg), the “Rotarod trial 1” value was 2 s and 8 s and 4 s and 23 s and 9 s and 22 s; the “Rotarod trial 2” value was 5 s and 11 s and 17 s and 22 s and 130 s and 10 s; the “Rotarod trial 3” value is 13 s and 135 s and 4 s and 46 s and 129 s and 117 s; the “Rotarod trial 4” value is 29 s and 169 s and 6 s and 101 s and 155 s and 230 s and 4 s. In data set [3] (2.5mg/kg), the “Rotarod trial 5” value is 15 s and 204 s and 111 s and 60 s and 154 s and 195 s and 10 s; the “Rotarod trial 6” value was 60 s and 172 s and 53 s and 88 s and 157 s and 272 s and 14 s; the “Rotarod D1 AVG” value is 3.5 s and 9.5 s and 10.5 s and 12 s and 76.5 s and 13 s and 16 s; the “Rotarod D2 AVG” value was 21 s and 152 s and 5 s and 73.5 s and 142 s and 117 s and 60.5 s. For the same compound, in data set [3] (2.5mg/kg), the “Rotarod D3 AVG” value is 37.5 s and 188 s and 82 s and 74 s and 155.5 s and 233.5 s and 12 s; the “Rotarod Total AVG” value was 20.6667 s and 116.5 s and 32.5 s and 53.1667 s and 124.667 s and 121.167 s and 29.5 s. Further, in data set [3] (5.0mg/kg), the “Rotarod D1 AVG, group mean” value is 27.2 s; the “Rotarod D3 AVG, group mean” value was 90.7 s; the “Rotarod trial 1” value is 54 s and 21 s and 19 s and 2 s and 14 s and 5 s and 29 s and 3 s and 1 s; the “Rotarod trial 2” value was 96 s and 41 s and 147 s and 28 s and 9 s and 38 s and 8 s and 10 s and 16 s and 1 s. Moreover, in data set [3] (5.0mg/kg), the “Rotarod trial 3” value was 47 s and 74 s and 152 s and 42 s and 51 s and 45 s and 18 s and 6 s and 5 s and 3 s; the “Rotarod trial 4” value was 46 s and 47 s and 178 s and 87 s and 35 s and 44 s and 66 s and 4 s and 32 s and 5 s; the “Rotarod trial 5” value is 80 s and 109 s and 179 s and 107 s and 92 s and 172 s and 35 s and 61 s and 62 s and 2 s; the “Rotarod trial 6” value was 110 s and 99 s and 139 s and 103 s and 133 s and 151 s and 84 s and 20 s and 69 s and 7 s. Also, in data set [3] (5.0mg/kg), the “Rotarod D1 AVG” value was 75 s and 31 s and 83 s and 15 s and 11.5 s and 20 s and 6.5 s and 19.5 s and 9.5 s and 1 s; the “Rotarod D2 AVG” value is 46.5 s and 60.5 s and 165 s and 64.5 s and 43 s and 44.5 s and 42 s and 5 s and 18.5 s and 4 s; the “Rotarod D3 AVG” value was 95 s and 104 s and 159 s and 105 s and 112.5 s and 161.5 s and 59.5 s and 40.5 s and 65.5 s and 4.5 s; the “Rotarod Total AVG” value was 72.1667 s and 65.1667 s and 135.667 s and 61.5 s and 55.6667 s and 75.3333 s and 36 s and 21.6667 s and 31.1667 s and 3.167 s. In data set [4], testing at 10 µM gave an inhibition of 90% and the remaining binding at 10 µM was 10%. Moreover, the novel object recognition entry in data set [5] was “significant improvements on novel object recognition”.
With `Cc1cccc(-c2cc3nccc(N4CCOCC4)c3s2)c1` [BK40197], the inhibition at 10 µM came out at 90.7% in data set [1] and 44% in data set [4]. Further, the figures for the remaining binding at 10 µM in data set [1] and in data set [4] were 9.3% and 56%, respectively. Further, the Kp in data set [6] (20 mg/kg IP) amounted to 0.251; in data set [6] (45 mg/kg IP), 0.201. Moreover, the time of peak concentration (Tmax) in data set [6] (brain, 20 mg/kg single IP, read-out: Brain Tmax) was found to be 2 h; in data set [6] (brain, 45 mg/kg single IP, read-out: Brain Tmax) it was 2 h; in data set [6] (serum, 20 mg/kg single IP, read-out: Serum Tmax), 1 h; in data set [6] (serum, 45 mg/kg single IP, read-out: Serum Tmax), 1 h. Also, the area under the curve (AUC) in data set [6] (serum, 20 mg/kg single IP) was 0.928 µg·h/mL; in data set [6] (serum, 45 mg/kg single IP), 1.94 µg·h/mL. The peak concentration (Cmax) in data set [6] (serum, 20 mg/kg single IP) was determined as 543 ± 82.3 ng/g; in data set [6] (serum, 45 mg/kg single IP), 1100 ± 165 ng/g. Moreover, the brain penetrance entry in data set [6] (single IP dose, C57BL/6 mice) is reported as “brain penetrant”. Moreover, in data set [7], the “solubility in DMSO” value is recorded as “insolubility”.
